Series [1] is described as follows: Population pharmacokinetic analysis of vancomycin (nonlinear mixed-effects modeling, Kinetica, one-compartment model).
Method: Data collected from patients’ medical records included age, total body weight, Sex, creatinine level, drug combination, and burn and continuous renal replacement therapy status (Burn-S, CRRT-S).
A total of 837 trough concentration (Ctrough) blood samples were collected 0.5 h before the next dose (after CRRT treatment for CRRT treatment patients), and 156 samples were collected at approach peak concentration (1 h after the peak concentration), both at the steady state (after the 6th dose) for most patients. All the samples (3–5 ml) were placed in 10 ml tubes containing coagulant and then centrifuged at 3000 rpm for 5 min. The supernatant serum was stored at − 80 °C for further testing.
The multilevel calibration was 0.4–100.0 μg/ml with calibration line slope consistently > 0.999. The RSD of intra-day and inter-day assays were less than 7%, and the recovery rate was 95.5–103.2%. Serum creatinine was detected by the creatine oxidase method with a biochemistry analyzer (Beckmann CX5).
As most of the trough concentrations of vancomycin was collected from sparse data at steady state, we fit the data with a one-compartment model to retrieve the pharmacokinetic parameters (CL and V).The covariate models and interindividual variability were expressed as following equation: βi=Ziβ+ηj, where βj denote as the parameter for the jth subject; Zj is amatrix depending on the covariates Zj. When no covariates are included, β is the (p*1) vector of the mean parameters; ηj is the interindividual variability that is assumed normal distribution with mean 0 and covariance matrix C (p*p).
For series [2] the following is noted: cited from earlier work.
From the text: We reasonably fitted the plots of concentrations versus time with one-compartment models for most serum samples (n = 837) collected during the trough period (156 samples were collected during the approach peak period).
Series [3] is described as follows: Vancomycin serum concentrations (trough and approach peak) by HPLC. The class given is in vivo, human. The settings on record: n = 374 ICU patients. As to the method:
Ctrough means trough concentration that of blood samples collected 0.5 h before the next dose; Cappro peak means approach peak concentration that of the blood samples collected 1 h after completion of drug infusion.

Setting [4] is: basic model (no covariates), Chinese ICU adult patients, population mean (RSE%).
[5] abbreviates: Christine, 102 patients, unstable renal function.
Setting [6] is: used as initial estimate, Chinese adult patients, ref Ji et al. [6].
The mark [7] stands for this setting: values reported by other studies in non-ICU patients.

Entries after “also recorded” stand apart in the source; their conditions may differ. Read-outs that look alike come from different tables or passages of the source. Marks after values point to notes of the source that are not given here.

On to `CN[C@H](CC(C)C)C(=O)N[C@H]1C(=O)N[C@@H](CC(N)=O)C(=O)N[C@H]2C(=O)N[C@H]3C(=O)N[C@H](C(=O)N[C@H](C(=O)O)c4cc(O)cc(O)c4-c4cc3ccc4O)[C@H](O)c3ccc(c(Cl)c3)Oc3cc2cc(c3O[C@@H]2O[C@H](CO)[C@@H](O)[C@H](O)[C@H]2O[C@H]2C[C@](C)(N)[C@H](O)[C@H](C)O2)Oc2ccc(cc2Cl)[C@H]1O` [vancomycin], for which the “CL (RSE%)” value is 2.63 (25.72) L/h in series [1] (setting [4]) and 3.16 (56.01) L/h in series [1] (final population model, Chinese ICU adult patients, one-compartment, EM algorithm, Kinetica 4.4.1, 294 patients for model building, serum HPLC, population mean). In addition, the “V (RSE%)” value in series [1] (setting [4]) is recorded as 55.32 (27.31) L. For the same compound, the “Final covariate equation of V” value in series [1] (final model, Cr μmol/L, Age y, TBW kg) is “V = 46.47 − 0.04*Cr − 0.07*Age + 0.16* TBW”. In series [1] (final model, DA dopamine (1 not used, 2 used), Cr μmol/L, Burn-S (1 burn > 50%, 2 < 50%), TBW kg, CRRT-S (1 CRRT, 2 not)), the “Final covariate equation of CL” value was “CL = 0.78 + 0.036*DA − 0.007*Cr − 0.43*Burn-S + 0.067*TBW + 0.41*CRRT-S; also recorded: CL =0.78 + 0.036*DA − 0.007*Cr -0.43* Burn-S + 0.067*TBW + 0.41* CRRT-S”. The “Final model of CL” value in series [2] (setting [5]) is “CL(L·h^−1) = 2.97*(1 + 0.0205*(CLCr − CLCrMedian))”; in series [2] (Llopis, 30 ICU patients) it was “CL(L·h^−1) = 0.034*CLCr(ml·min^−1) + 0.015* TBW”; in series [2] (Natalia, 191 ICU patients), “CL(ml·min^−1·kg^−1) = 0.67*CLCr (ml·min^−1 ·kg^−1) + AGE^−0.24”; in series [2] (Yasuhara, 190 adult Japanese, if CLCr < 85), “CL(L·h^−1) = 0.0487*CLCr(ml·min^−1),”. The V in series [2] (setting [5]) was 1.24 L/kg; in series [2] (ICU patients with Cr > 88.4 μmol/l) it was 148.19 L; in series [2] (ICU patients with Cr value below 88.4 μmol/l), 59.86 L; in series [2] (setting [7]) it was 31.24 to 91.76 L. Besides, in series [2] (Llopis, 30 ICU patients), the “Final model of Vc (central compartment volume)” value is “Vc (L) = 0.414* TBW”. In series [2] (Llopis, 30 ICU patients), the “Final model of Vp (peripheral compartment volume)” value is recorded as “Vp (L) = 1.32*TBW”. In addition, the “Final model of V” value in series [2] (Natalia, 191 ICU patients) is on record as “V (L·kg^−1) = 0.82*2.49^A, A = 0 or 1 if Cr ≤ 88.4 or Cr > 88.4 μmol/L”. Besides, the CL in series [2] (Yasuhara, 190 adult Japanese, if CLCr > 85) was 3.51 L/h; in series [2] (setting [7]) it was 2.89 to 5.93 L/h. Moreover, in series [2] (setting [6]), the “initial pharmacokinetic parameter CL” value is on record as 2.83 L/h. The “initial pharmacokinetic parameter V” value in series [2] (setting [6]) is given as 52.14 L. Besides, in series [3] (blood samples collected 0.5 h before the next dose, steady state (after the 6th dose), regimens 0.5 g qd to 1 g q12h), the “Ctrough (trough concentration)” value is given as 16.3 ± 12.4. In series [3] (blood samples collected 1 h after completion of drug infusion, steady state), the “Cappro peak (approach peak concentration)” value is on record as 36.0 ± 19.4.

(Values after article PMC7846798, “Population pharmacokinetic modeling and clinical application of vancomycin in Chinese patients hospitalized in intensive care units” (Scientific Reports, 2021).)
